Laboratory results as given in patent US20090311217A1, “3-SUBSTITUTED-1H-INDOLE COMPOUNDS, THEIR USE AS MTOR KINASE AND PI3 KINASE INHIBITORS, AND THEIR SYNTHESES” (priority 2008, published 2009).
Where two headings read alike, the source gives them in different places.

What was measured:
Type in all cases: biochemical
[1] = molecular target: T1, human TOR (Homo sapiens, UniProt P42345); assay: mTOR enzyme assay (DELFIA, His6-S6K substrate); settings: read-out: mTOR Kinase Avg. IC50
T1 construct: FLAG

[2] = molecular target: PI3K-alpha (Homo sapiens, UniProt P42336); assay: PI3K-alpha fluorescence polarization assay
[3] = molecular target: PI3K-gamma (Homo sapiens, UniProt P48736); assay: PI3K-gamma fluorescence polarization assay; settings: PI3Kγ Avg. IC50
Method in brief: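 Enzyme 5 ng; substrate diC8-PI(4,5)P2 2.5 μM; ATP 25 μM; 5 mM HEPES pH 7, 2.5 mM MgCl2; DMSO ≤2%; 1 h, 25° C. Quench 10 mM EDTA. Detect with GRP1 PH domain 100 nM + TMR-IP4 probe 5 nM by polarization.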

PI3K-alpha, sequence (P42336 whole entry, species assumed): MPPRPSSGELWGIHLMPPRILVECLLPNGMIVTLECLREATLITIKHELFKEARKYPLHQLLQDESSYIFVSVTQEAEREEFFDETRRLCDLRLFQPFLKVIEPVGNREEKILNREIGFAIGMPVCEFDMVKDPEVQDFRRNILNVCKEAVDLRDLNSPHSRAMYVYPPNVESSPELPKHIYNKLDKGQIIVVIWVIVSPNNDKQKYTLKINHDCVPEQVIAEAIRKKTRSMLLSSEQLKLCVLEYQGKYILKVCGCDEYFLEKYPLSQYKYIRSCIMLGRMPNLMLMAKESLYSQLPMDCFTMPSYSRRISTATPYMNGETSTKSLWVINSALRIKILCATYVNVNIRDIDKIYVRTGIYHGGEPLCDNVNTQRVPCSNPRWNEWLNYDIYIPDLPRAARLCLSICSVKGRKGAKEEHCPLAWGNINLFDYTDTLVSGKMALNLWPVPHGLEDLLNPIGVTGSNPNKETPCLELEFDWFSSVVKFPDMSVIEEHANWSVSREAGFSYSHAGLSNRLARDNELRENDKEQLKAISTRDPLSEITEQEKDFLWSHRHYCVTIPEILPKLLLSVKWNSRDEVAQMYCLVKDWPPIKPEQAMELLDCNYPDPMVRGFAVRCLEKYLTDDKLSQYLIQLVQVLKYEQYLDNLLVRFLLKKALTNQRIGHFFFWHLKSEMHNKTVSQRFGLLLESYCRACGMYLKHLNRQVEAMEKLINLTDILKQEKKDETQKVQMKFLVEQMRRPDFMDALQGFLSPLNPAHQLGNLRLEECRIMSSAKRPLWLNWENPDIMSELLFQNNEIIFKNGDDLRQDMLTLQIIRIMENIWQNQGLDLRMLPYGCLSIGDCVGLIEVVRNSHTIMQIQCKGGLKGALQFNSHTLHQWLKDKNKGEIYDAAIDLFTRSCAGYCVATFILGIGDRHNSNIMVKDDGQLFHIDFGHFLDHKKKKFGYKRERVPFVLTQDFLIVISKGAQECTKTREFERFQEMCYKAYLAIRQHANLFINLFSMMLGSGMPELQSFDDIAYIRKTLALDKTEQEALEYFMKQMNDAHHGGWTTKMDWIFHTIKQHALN
PI3K-alpha, sequence (P27986 whole entry partner, species assumed): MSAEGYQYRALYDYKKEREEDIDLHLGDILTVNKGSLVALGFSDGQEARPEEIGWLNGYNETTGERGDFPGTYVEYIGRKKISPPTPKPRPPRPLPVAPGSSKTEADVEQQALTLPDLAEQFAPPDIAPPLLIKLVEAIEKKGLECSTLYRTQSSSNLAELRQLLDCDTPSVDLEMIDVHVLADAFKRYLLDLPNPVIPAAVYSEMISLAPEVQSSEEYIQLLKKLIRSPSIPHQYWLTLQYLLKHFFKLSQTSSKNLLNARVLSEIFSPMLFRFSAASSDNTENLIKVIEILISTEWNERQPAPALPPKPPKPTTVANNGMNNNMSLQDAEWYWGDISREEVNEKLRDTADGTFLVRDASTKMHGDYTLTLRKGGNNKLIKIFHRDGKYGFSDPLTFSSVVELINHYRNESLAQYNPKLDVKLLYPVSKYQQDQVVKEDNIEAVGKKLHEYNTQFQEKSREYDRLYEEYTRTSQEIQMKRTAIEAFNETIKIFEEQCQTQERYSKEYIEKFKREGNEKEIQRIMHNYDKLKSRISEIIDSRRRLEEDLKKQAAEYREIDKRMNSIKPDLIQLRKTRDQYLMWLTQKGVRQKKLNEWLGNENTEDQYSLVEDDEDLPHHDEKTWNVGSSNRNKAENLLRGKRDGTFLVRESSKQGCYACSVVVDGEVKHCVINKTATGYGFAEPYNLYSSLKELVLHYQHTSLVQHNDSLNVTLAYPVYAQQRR
PI3K-gamma, sequence (P48736 whole entry, species assumed, the tested form may be a part): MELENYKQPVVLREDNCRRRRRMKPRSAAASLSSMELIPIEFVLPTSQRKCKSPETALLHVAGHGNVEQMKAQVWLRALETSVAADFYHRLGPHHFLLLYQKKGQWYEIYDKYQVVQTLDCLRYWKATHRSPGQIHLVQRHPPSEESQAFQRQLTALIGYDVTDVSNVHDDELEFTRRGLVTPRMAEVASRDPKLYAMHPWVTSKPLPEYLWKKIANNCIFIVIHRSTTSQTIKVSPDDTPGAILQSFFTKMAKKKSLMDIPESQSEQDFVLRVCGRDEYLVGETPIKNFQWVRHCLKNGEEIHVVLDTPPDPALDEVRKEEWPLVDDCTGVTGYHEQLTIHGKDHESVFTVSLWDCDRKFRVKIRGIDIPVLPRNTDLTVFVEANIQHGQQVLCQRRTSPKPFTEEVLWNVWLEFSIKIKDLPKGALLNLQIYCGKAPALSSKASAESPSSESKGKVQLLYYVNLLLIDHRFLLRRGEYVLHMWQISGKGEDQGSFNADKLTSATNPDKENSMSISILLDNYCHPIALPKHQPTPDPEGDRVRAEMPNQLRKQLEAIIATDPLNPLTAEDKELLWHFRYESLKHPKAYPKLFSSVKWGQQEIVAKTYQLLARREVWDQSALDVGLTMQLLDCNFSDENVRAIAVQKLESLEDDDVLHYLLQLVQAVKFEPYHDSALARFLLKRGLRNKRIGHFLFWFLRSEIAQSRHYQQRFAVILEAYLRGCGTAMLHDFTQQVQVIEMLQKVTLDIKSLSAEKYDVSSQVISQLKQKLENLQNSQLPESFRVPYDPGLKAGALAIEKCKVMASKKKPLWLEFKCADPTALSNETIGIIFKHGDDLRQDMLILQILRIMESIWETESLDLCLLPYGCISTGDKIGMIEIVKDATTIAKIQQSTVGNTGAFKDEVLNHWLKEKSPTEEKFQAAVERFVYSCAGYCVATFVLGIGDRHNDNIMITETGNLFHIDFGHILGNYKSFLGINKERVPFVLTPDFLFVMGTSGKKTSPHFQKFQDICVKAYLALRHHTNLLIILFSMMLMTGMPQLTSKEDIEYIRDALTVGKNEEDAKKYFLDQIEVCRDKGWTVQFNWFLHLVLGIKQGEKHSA

SMILES: COc1ccc2c(c1)c(/C=C1\Oc3cc(O)ccc3C1=O)c(C1CC1)n2CCCN(C)C [Example 462, (2Z)-2-({2-Cyclopropyl-1-[3-(dimethylamino)propyl]-5-methoxy-1H-indol-3-yl}methylene)-6-hydroxy-1-benzofuran-3(2H)-one]
- IC50 [1]: 635 nM
- IC50 ([2]; read-out: PI3Kα Avg. IC50): 21.5 nM
- IC50 [3]: 1050 nM

SMILES: Cn1cc(/C=C2\Oc3cccc(O)c3C2=O)c2ccccc21 [Example 441, (2Z)-4-Hydroxy-2-[(1-methyl-1H-indol-3-yl)methylene]benzofuran-3(2H)-one]
- IC50 [1]: > 20000 nM
- IC50 ([2]; read-out: PI3Kα Avg. IC50): > 10000 nM
- IC50 [3]: > 10000 nM

SMILES: CNC(=O)Nc1ccc2c(c1)C(=O)/C(=C/c1c(-c3cnn(CC(C)C)c3)[nH]c3ccc(OC)cc13)O2 [Compound 706, 1-[(2Z)-2-({5-methoxy-2-[1-(2-methylpropyl)-1H-pyrazol-4-yl]-1H-indol-3-yl}methylidene)-3-oxo-2,3-dihydro-1-benzofuran-5-yl]-3-methylurea]
- IC50 [1]: 10 nM
- IC50 ([2]; read-out: PI3Kα Avg. IC50): 1.3 nM
- IC50 [3]: 10 nM

SMILES: CNCCNC(=O)c1ccc(NC(=O)Nc2ccc3c(c2)C(=O)/C(=C/c2c(C)n(CCN4CCN(C)CC4)c4ccc(OC)cc24)O3)cc1 [Compound 669, 4-({[(2Z)-2-({5-methoxy-2-methyl-1-[2-(4-methylpiperazin-1-yl)ethyl]-1H-indol-3-yl}methylidene)-3-oxo-2,3-dihydro-1-benzofuran-5-yl]carbamoyl}amino)-N-[2-(methylamino)ethyl]benzamide]
- IC50 [1]: 4 nM
- IC50 ([2]; read-out: PI3Kα Avg. IC50): 0.6 nM
- IC50 [3]: 29 nM

SMILES: COC(=O)Nc1ccc2c(c1)OC(=Cc1cn(CCCN(C)C)c3ccc(OC)cc13)C2=O [Example 405, Methyl [2-({1-[3-(dimethylamino)propyl]-5-methoxy-1H-indol-3-yl}methylene)-3-oxo-2,3-dihydro-1-benzofuran-6-yl]carbamate]
- IC50 [1]: > 20000 nM
- IC50 ([2]; read-out: PI3Kα Avg. IC50): > 10000 nM
- IC50 [3]: > 10000 nM

SMILES: COc1ccc2c(c1)c(/C=C1\Oc3ccc(NC(=O)Nc4ccc(OCCCCN(C)C)cc4)cc3C1=O)c(C)n2CCN1CCN(C)CC1 [Compound 674, 1-{4-[4-(dimethylamino)butoxy]phenyl}-3-[(2Z)-2-({5-methoxy-2-methyl-1-[2-(4-methylpiperazin-1-yl)ethyl]-1H-indol-3-yl}methylidene)-3-oxo-2,3-dihydro-1-benzofuran-5-yl]urea]
- IC50 [1]: 350 nM
- IC50 ([2]; read-out: PI3Kα Avg. IC50): 10 nM
- IC50 [3]: 686 nM

SMILES: Cn1cc(/C=C2\Oc3cc(O)cc(O)c3C2=O)c2c(-c3ccc(C(=O)NCc4ccco4)cc3)cccc21 [Example 399, 4-{3-[(Z)-(4,6-dihydroxy-3-oxo-1-benzofuran-2(3H)-ylidene)methyl]-1-methyl-1H-indol-4-yl}-N-(2-furylmethyl)benzamide]
- IC50 [1]: 69.5 nM
- IC50 ([2]; read-out: PI3Kα Avg. IC50): 805 nM
- IC50 [3]: > 10000 nM

SMILES: Cn1cc(/C=C2\Oc3cc(O)cc(O)c3C2=O)c2c(-c3ccc(O)cc3)cccc21 [Example 379, (2Z)-4,6-Dihydroxy-2-{[4-(4-hydroxyphenyl)-1-methyl-1H-indol-3-yl]methylene}-1-benzofuran-3(2H)-one]
- IC50 [1]: 29 nM
- IC50 ([2]; read-out: PI3Kα Avg. IC50): 562 nM
- IC50 [3]: 1090 nM

SMILES: COc1ccc2[nH]cc(C=C3Oc4cc(S(C)(=O)=O)ccc4C3=O)c2c1 [Example 436, 2-[(5-Methoxy-1H-indol-3-yl)methylene]-6-(methylsulfonyl)-1-benzofuran-3(2H)-one]
- IC50 [1]: > 20000 nM
- IC50 ([2]; read-out: PI3Kα Avg. IC50): > 10000 nM
- IC50 [3]: > 10000 nM

SMILES: Cn1cc(/C=C2\Oc3c(Br)ccc(O)c3C2=O)c2c(-c3ccccc3)cccc21 [Example 428, (2Z)-7-Bromo-4-hydroxy-2-[(1-methyl-4-phenyl-1H-indol-3-yl)methylene]benzofuran-3(2H)-one]
- IC50 [1]: > 20000 nM
- IC50 ([2]; read-out: PI3Kα Avg. IC50): > 5000 nM
- IC50 [3]: > 5000 nM

SMILES: Cn1cc(/C=C2\Oc3cccc(O)c3C2=O)c2c(-c3ccccc3)cccc21 [Example 400, (2Z)-4-Hydroxy-2-[(1-methyl-4-phenyl-1H-indol-3-yl)methylene]-1-benzofuran-3(2H)-one]
- IC50 [1]: > 19500 nM
- IC50 ([2]; read-out: PI3Kα Avg. IC50): > 10000 nM
- IC50 [3]: > 10000 nM

SMILES: CCn1c(C)c(/C=C2\Oc3ccc(NC(=O)Nc4ccc(OCCCN(C)C)cc4)cc3C2=O)c2cc(OC)ccc21 [Compound 654, 1-{4-[3-(dimethylamino)propoxy]phenyl}-3-{(2Z)-2-[(1-ethyl-5-methoxy-2-methyl-1H-indol-3-yl)methylene]-3-oxo-2,3-dihydro-1-benzofuran-5-yl}urea]
- IC50 [1]: 88 nM
- IC50 ([2]; read-out: PI3Kα Avg. IC50): 1.5 nM
- IC50 [3]: 7.5 nM

SMILES: COc1ccc2[nH]cc(/C=C3\Oc4cc(O)ccc4C3=O)c2c1 [Example 414, (2Z)-6-Hydroxy-2-[(5-methoxy-1H-indol-3-yl)methylene]-1-benzofuran-3(2H)-one]
- IC50 [1]: 1850 nM
- IC50 ([2]; read-out: PI3Kα Avg. IC50): 55 nM
- IC50 [3]: 281 nM

SMILES: CNC(=O)Nc1ccc2c(c1)C(=O)/C(=C/c1c(-c3c(C)nn(C)c3C)n(CCN(C)CCN(C)C)c3ccc(OC)cc13)O2 [Compound 665, 1-[(2Z)-2-{[1-(2-{[2-(dimethylamino)ethyl](methyl)amino}ethyl)-5-methoxy-2-(1,3,5-trimethyl-1H-pyrazol-4-yl)-1H-indol-3-yl]methylidene}-3-oxo-2,3-dihydro-1-benzofuran-5-yl]-3-methylurea]
- IC50 [1]: 39 nM
- IC50 ([2]; read-out: PI3Kα Avg. IC50): 5.5 nM
- IC50 [3]: 127 nM

SMILES: O=C1C(=Cc2c[nH]c3ccc(O)cc23)Oc2cc(O)cc(O)c21 [Example 164, 4,6-dihydroxy-2-[(5-hydroxy-1H-indol-3-yl)methylene]-1-benzofuran-3(2H)-one]
- IC50 [1]: 5200 nM
- IC50 ([2]; read-out: PI3Kα Avg. IC50): 251 nM
- IC50 [3]: 3850 nM

SMILES: N#CCCCCn1c(-c2ccccc2)c(C=C2Oc3cc(O)cc(O)c3C2=O)c2ccccc21 [Example 224, 5-{3-[(4,6-dihydroxy-3-oxo-1-benzofuran-2(3H)-ylidene)methyl]-2-phenyl-1H-indol-1-yl}pentanenitrile]
- IC50 [1]: 480 nM
- IC50 ([2]; read-out: PI3Kα Avg. IC50): 751 nM
- IC50 [3]: > 10000 nM

SMILES: COc1ccc2[nH]c(-c3c(C)nn(C)c3C)c(/C=C3\Oc4ccc(NC(=O)Nc5ccc(C(=O)N6CCOCC6)cc5)cc4C3=O)c2c1 [Compound 690, 1-[(2Z)-2-{[5-methoxy-2-(1,3,5-trimethyl-1H-pyrazol-4-yl)-1H-indol-3-yl]methylidene}-3-oxo-2,3-dihydro-1-benzofuran-5-yl]-3-[4-(morpholin-4-ylcarbonyl)phenyl]urea]
- IC50 [1]: 4 nM
- IC50 ([2]; read-out: PI3Kα Avg. IC50): 0.2 nM
- IC50 [3]: 2.75 nM

SMILES: CNC(=O)Nc1ccc2c(c1)C(=O)/C(=C/c1c(-c3c(C)noc3C)n(CCN3CCN(C)CC3)c3ccc(OC)cc13)O2 [Compound 623, 1-[(2Z)-2-({2-(3,5-dimethylisoxazol-4-yl)-5-methoxy-1-[2-(4-methylpiperazin-1-yl)ethyl]-1H-indol-3-yl}methylidene)-3-oxo-2,3-dihydro-1-benzofuran-5-yl]-3-methylurea]
- IC50 [1]: 60 nM
- IC50 ([2]; read-out: PI3Kα Avg. IC50): 8.5 nM
- IC50 [3]: 296 nM

SMILES: Cn1cc(/C=C2\Oc3cc(O)cc(O)c3C2=O)c2c(-c3cccc(F)c3)cccc21 [Example 365, (2Z)-2-{[4-(3-Fluorophenyl)-1-methyl-1H-indol-3-yl]methylene}-4,6-dihydroxy-1-benzofuran-3(2H)-one]
- IC50 [1]: 104 nM
- IC50 ([2]; read-out: PI3Kα Avg. IC50): 437 nM
- IC50 [3]: 1960 nM

SMILES: COc1ccc2c(c1)SC(=Cc1c[nH]c3ccc(OC)cc13)C2=O [Example 433, 6-Methoxy-2-[(5-methoxy-1H-indol-3-yl)methylene]-1-benzothiophen-3(2H)-one]
- IC50 [1]: > 20000 nM
- IC50 ([2]; read-out: PI3Kα Avg. IC50): > 10000 nM
- IC50 [3]: > 10000 nM

SMILES: O=C1C(=Cc2c(-c3cccc(F)c3)[nH]c3ccccc23)Oc2cc(O)cc(O)c21 [Example 210, 2-{[2-(3-fluorophenyl)-1H-indol-3-yl]methylene}-4,6-dihydroxy-1-benzofuran-3(2H)-one]
- IC50 [1]: 190 nM
- IC50 ([2]; read-out: PI3Kα Avg. IC50): 674 nM
- IC50 [3]: 1480 nM

SMILES: CCn1c(C)c(/C=C2\Oc3ccc(NC(=O)Nc4ccc(OCCCNC)cc4)cc3C2=O)c2cc(OC)ccc21 [Compound 683, 1-{(2Z)-2-[(1-ethyl-5-methoxy-2-methyl-1H-indol-3-yl)methylidene]-3-oxo-2,3-dihydro-1-benzofuran-5-yl}-3-{4-[3-(methylamino)propoxy]phenyl}urea]
- IC50 [1]: 92 nM
- IC50 ([2]; read-out: PI3Kα Avg. IC50): 1.65 nM
- IC50 [3]: 11 nM

SMILES: O=C1C(=Cc2c[nH]c3ccc(F)cc23)Oc2cc(O)cc(O)c21 [Example 175, 2-[(5-fluoro-1H-indol-3-yl)methylene]-4,6-dihydroxy-1-benzofuran-3(2H)-one]
- IC50 [1]: 9000 nM
- IC50 ([2]; read-out: PI3Kα Avg. IC50): 1040 nM
- IC50 [3]: > 10000 nM

SMILES: O=C1/C(=C/c2c[nH]c3ccc(Cl)cc23)Oc2cc(O)cc(O)c21 [Example 60, (2Z)-2-[(5-chloro-1H-indol-3-yl)methylene]-4,6-dihydroxy-1-benzofuran-3(2H)-one]
- IC50 [1]: 11000 nM
- IC50 ([2]; PI3Kα Avg. IC50): 492 nM
- IC50 [3]: 3630 nM

SMILES: CN(C)CCn1c(-c2ccccc2)c(C=C2Oc3cc(O)cc(O)c3C2=O)c2ccccc21 [Example 148, 2-({1-[2-(dimethylamino)ethyl]-2-phenyl-1H-indol-3-yl}methylene)-4,6-dihydroxy-1-benzofuran-3(2H)-one]
- IC50 [1]: 500 nM
- IC50 ([2]; read-out: PI3Kα Avg. IC50): 2680 nM
- IC50 [3]: 4710 nM

SMILES: O=C1C(=Cc2c[nH]c3cccc(Cl)c23)Oc2cc(O)cc(O)c21 [Example 171, 2-[(4-chloro-1H-indol-3-yl)methylene]-4,6-dihydroxy-1-benzofuran-3(2H)-one]
- IC50 [1]: > 20000 nM
- IC50 ([2]; read-out: PI3Kα Avg. IC50): 2030 nM
- IC50 [3]: > 10000 nM

SMILES: N#CCCCn1c(-c2cccnc2)c(C=C2Oc3cc(O)cc(O)c3C2=O)c2ccccc21 [Example 226, 4-{3-[(4,6-dihydroxy-3-oxo-1-benzofuran-2(3H)-ylidene)methyl]-2-pyridin-3-yl-1H-indol-1-yl}butanenitrile]
- IC50 [1]: 670 nM
- IC50 ([2]; read-out: PI3Kα Avg. IC50): 1650 nM
- IC50 [3]: > 10000 nM
